Assay results: PubChem BioAssay (NCI)
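Five concentrations, 48 hours, 96-well plates. Definition used: TGI = concentration required for complete inhibition of growth.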

How the values were obtained:
Assay in all cases: DTP human tumour cell line panel, 48 h
[1] = test system: A498 renal
[2] = test system: ACHN renal
[3] = test system: CCRF-CEM leukemia
[4] = test system: HCC-2998 colon
[5] = test system: HCT-116 colon
[6] = test system: HL-60(TB) leukemia
[7] = test system: HS 578T breast
[8] = test system: HT29 colon
[9] = test system: K-562 leukemia
[10] = test system: LOX IMVI melanoma
[11] = test system: MALME-3M melanoma
[12] = test system: OVCAR-5 ovarian
[13] = test system: RXF 393 renal
[14] = test system: SF-539 CNS
[15] = test system: SN12C renal
[16] = test system: SR leukemia
[17] = test system: T-47D breast
[18] = test system: UO-31 renal
[19] = test system: A549 NSCLC
[20] = test system: NCI/ADR-RES ovarian

SMILES	TGI [1]	TGI [2]	TGI [3]	TGI [4]	TGI [5]	TGI [6]	TGI [7]	TGI [8]	TGI [9]	TGI [10]	TGI [11]	TGI [12]	TGI [13]	TGI [14]	TGI [15]	TGI [16]	TGI [17]	TGI [18]	TGI [19]	TGI [20]
CCOC(=O)Cc1cnc(NC(NC(=O)CC)(C(F)(F)F)C(F)(F)F)s1	> 100 µM	> 100 µM	> 100 µM	> 100 µM	> 100 µM	> 100 µM	> 100 µM	> 100 µM	> 100 µM	> 100 µM	> 100 µM	> 100 µM	> 100 µM	> 100 µM	> 100 µM	> 100 µM	> 100 µM	> 100 µM		
COc1ccc(N2C(=O)C3c4[nH]c5ccc(F)cc5c4C4CCC(C(C)(C)C)CC4C3C2=O)cc1 (stereo unspecified)	> 10 µM	> 10 µM	> 10 µM	> 10 µM	> 10 µM	> 10 µM	> 10 µM	> 10 µM			> 10 µM	> 10 µM	> 10 µM	> 10 µM	> 10 µM	> 10 µM	> 10 µM	> 10 µM	> 10 µM	> 10 µM
Cc1nc2[nH]ncn2c(=O)c1CCO	> 10 µM	> 10 µM	> 10 µM	> 10 µM	> 10 µM	> 10 µM	> 10 µM	> 10 µM	> 10 µM	> 10 µM	> 10 µM	> 10 µM	> 10 µM	> 10 µM	> 10 µM	> 10 µM	> 10 µM	> 10 µM	> 10 µM	> 10 µM
COc1ccc2c3c([nH]c2c1)CCN(Cc1ccccc1)C3	46.5 µM	> 100 µM	> 100 µM	34.1 µM	> 100 µM	35.8 µM	56.9 µM	> 100 µM	51.3 µM	38 µM	34.6 µM	69 µM	50.7 µM	32.7 µM	78.2 µM	40.3 µM	69.1 µM	39.6 µM	> 100 µM	98.3 µM
